Assay results from patent US20120135064A1, “CONJUGATED NANODELIVERY VEHICLES” (Northeastern University, priority 2009, published 2012).

What was measured:
[1] = system: HPAF-II pancreatic tumor; test: In vivo therapeutic study, subcutaneous HPAF-II pancreatic tumor model, tumor volume; set-up: species or system nude mice; settings: HPAF-II tumors; injections days 1, 4, 7, 10
Method: Tumors were grown by subcutaneously injecting 2×10^6 HPAF-II cells in 0.1 ml of cell culture media. Daily tumor volume measurements were taken using an electronic digital caliper (Control Company, Friendswood, Tex.). The equation a^2×b×0.52 was used to calculate the tumor volume, where ‘a’ and ‘b’ corresponded to the longer and shorter diameters, respectively. […] Animals received injections of the various formulations when the tumors reached a size of about 150 mm^3; the untreated control group received no injections. […] Day 1 injection was 18 μg of 2-methoxyestradiol for both PCL formulations. Day 4, 7, and 10 injections corresponded to 24 μg of 2-methoxyestradiol for both formulations. […] The end of the study was three days after the fourth injection, at which point the mice were anesthetized with ketamine/xylazine.

[2] = system: Capan-1, HPAF-II, PANC-1, MS1-VEGF and HMEC-1 cells; test: Bevacizumab cell toxicity assay (SRB); format: cell-based; settings: 24 h exposure; media containing or free of VEGF
Method: Cells were seeded at 1×10^4 cells/well in 1 ml volumes in a 48-well plate. The cells were incubated for 24 h in a 37° C. cell culture incubator set at CO2 5%. […] After 24 h of incubation the SRB assay was performed (as described in, e.g., Dandamudi et al., Biochim. Biophys. Acta 1768:427-438 (2007); Skehan et al., J. Natl. Cancer Inst. 82:1107-1112 (1990); and Kalra et al., Pharm. Res. 23:2809-2817 (2006)). Briefly, the plates were washed twice with 1 ml/well of 1×PBS. Then, […] trichloracetic acid 50% solution (TCA; […]) was added to each well and the plates were stored at 4° C. for 1 h. The plates were thoroughly washed with distilled H2O five times and then 200 μl of SRB 0.4% was added to each well The plates were stored at room temperature for 30 min and then washed 4-6 times thoroughly with acetic acid 1% to remove excess SRB and air dried. 1 ml of […] was added to each well to solubilize the SRB and fluorescence intensity was measured at excitation wavelength of 540/20 and emission wavelength of 590/20 nm using FLX 800 Fluorescence Microplate Reader (Biotech instruments Inc., Winooski, Vt.). All groups were compared with untreated cells for statistical analysis.

Substance: bevacizumab: anti-VEGF antibody bevacizumab (Avastin, Roche)
- earliest day at which tumor response / significant benefit was seen [1]: 3 days
- nontoxic concentration (maximum amount of antibody without altering the growth potential of the cells) [2]: 500 ng/mL
